The subject of series [1] is LNCaP. Briefly: Cytotoxicity against human LNCAP cells assessed as decrease in cell viability after 48 hrs by MTT assay. Format: functional, cell-based.
Series [2] concerns MCF7. The experiment in a line: Cytotoxicity against human MCF7 cells assessed as decrease in cell viability after 48 hrs by MTT assay. Format: functional, cell-based. As to conditions: MCF7, 48 h.
Series [3] is described as follows: Cytotoxicity against human PA1 cells assessed as decrease in cell viability after 48 hrs by MTT assay. Format: functional, cell-based. As to conditions: PA-1, 48 h.
Series [4] in a line: Cytotoxicity against human U87MG cells assessed as decrease in cell viability after 48 hrs by MTT assay. Format: functional, cell-based, U-87MG ATCC. Particulars: U-87 MG.
Series [5] in a line: Cytotoxicity against human RWPE1 cells assessed as decrease in cell viability after 48 hrs by MTT assay. As to conditions: RWPE-1, 48 h. Format: cell-based.
The nature of series [6]: Cell cycle arrest in human PA1 cells assessed as accumulation at G0/G1 phase at 1 uM after 24 hrs by propidium iodide staining based flow cytometry (reference value: 73.23%). Format: functional. Particulars: PA-1.
The subject of series [7] is PA-1. The experiment in a line: Induction of apoptosis in human PA1 cells assessed as early apoptotic cells at 2.5 uM after 24 hrs by annexin V-FITC/propidium iodide staining based flow cytometry (reference value: 1.65%). Format: functional.
In series [8] the test system is PA-1. Briefly: Induction of morphological changes in human PA1 cells assessed as cell shrinking at 1 to 2.5 uM after 24 hrs by inverted phase contrast microscopy. Format: functional, cell-based.
Series [9] deals with PA-1. Briefly: Induction of apoptosis in human PA1 cells assessed as viable cells at 1 uM after 24 hrs by annexin V-FITC/propidium iodide staining based flow cytometry (reference value: 97.01%). Format: functional. Particulars: PA-1, 24 h, read-out: Activity.
Series [10] concerns PA-1. The experiment in a line: Induction of apoptosis in human PA1 cells assessed as necrotic cells at 2.5 uM after 24 hrs by annexin V-FITC/propidium iodide staining based flow cytometry (reference value: 0.10%). Format: functional.
The test system of series [11] is PA-1. Briefly: Antiproliferative activity against human PA1 cells assessed as reduction in viable cells at 1 to 2.5 uM after 24 hrs by inverted phase contrast microscopy. Format: functional, cell-based.
The subject of series [12] is PA-1. Briefly: Induction of apoptosis in human PA1 cells assessed as late apoptotic cells at 2.5 uM after 24 hrs by annexin V-FITC/propidium iodide staining based flow cytometry (reference value: 1.24%). Format: functional.
The nature of series [13]: Cell cycle arrest in human PA1 cells assessed as accumulation at S phase at 2.5 uM after 24 hrs by propidium iodide staining based flow cytometry (reference value: 10.25%). Format: functional. Particulars: PA-1.
Series [14] deals with PA-1. Briefly: Induction of morphological changes in human PA1 cells assessed as cell wall deformation at 1 to 2.5 uM after 24 hrs by inverted phase contrast microscopy. Format: functional, cell-based.
Series [15] deals with PA-1. Briefly: Induction of apoptosis in human PA1 cells after 24 hrs by annexin V-FITC/propidium iodide staining based flow cytometry. Format: functional, cell-based.
In series [16] the test system is PA-1. The experiment in a line: Induction of cell death in human PA1 cells assessed as membrane blebbing at 1 to 2.5 uM after 24 hrs by acridine orange/ethidium bromide staining based fluorescence microscopy. Format: functional.
Series [17] is described as follows: Cell cycle arrest in human PA1 cells assessed as accumulation at S phase at 1 uM after 24 hrs by propidium iodide staining based flow cytometry (reference value: 10.25%). Format: functional. Particulars: PA-1.
Series [18] concerns PA-1. The experiment in a line: Induction of cell death in human PA1 cells assessed as chromatin condensation at 1 to 2.5 uM after 24 hrs by acridine orange/ethidium bromide staining based fluorescence microscopy. Format: functional.
Series [19] can be described thus: Cell cycle arrest in human PA1 cells assessed as accumulation at G2/M phase at 1 uM after 24 hrs by propidium iodide staining based flow cytometry (reference value: 15.72%). Particulars: PA-1. Format: functional.
Series [20] deals with PA-1. The experiment in a line: Induction of cell death in human PA1 cells assessed as apoptotic body formation at 1 to 2.5 uM after 24 hrs by acridine orange/ethidium bromide staining based fluorescence microscopy. Format: functional.
Series [21] relates to PA-1. The experiment in a line: Induction of apoptosis in human PA1 cells assessed as necrotic cells at 1 uM after 24 hrs by annexin V-FITC/propidium iodide staining based flow cytometry (reference value: 0.10%). Format: functional.
Series [22] can be described thus: Cell cycle arrest in human PA1 cells assessed as accumulation at G0/G1 phase at 2.5 uM after 24 hrs by propidium iodide staining based flow cytometry (reference value: 73.23%). Particulars: PA-1. Format: functional.
Series [23] deals with PA-1. Briefly: Induction of cell death in human PA1 cells assessed as cell shrinking at 1 to 2.5 uM after 24 hrs by acridine orange/ethidium bromide staining based fluorescence microscopy. Format: functional.
Series [24] can be described thus: Cell cycle arrest in human PA1 cells assessed as accumulation at G2/M phase after 24 hrs by propidium iodide staining based flow cytometry. Format: functional. As to conditions: PA-1.
In series [25] the test system is PA-1. Briefly: Induction of apoptosis in human PA1 cells assessed as late apoptotic cells at 1 uM after 24 hrs by annexin V-FITC/propidium iodide staining based flow cytometry (reference value: 1.24%). Format: functional.
The nature of series [26]: Cell cycle arrest in human PA1 cells assessed as accumulation at G2/M phase at 2.5 uM after 24 hrs by propidium iodide staining based flow cytometry (reference value: 15.72%). Format: functional. Particulars: PA-1.
In series [27] the test system is PA-1. Briefly: Induction of apoptosis in human PA1 cells assessed as early apoptotic cells at 1 uM after 24 hrs by annexin V-FITC/propidium iodide staining based flow cytometry (reference value: 1.65%). Format: functional.
Series [28] deals with PA-1. The experiment in a line: Induction of apoptosis in human PA1 cells assessed as viable cells at 2.5 uM after 24 hrs by annexin V-FITC/propidium iodide staining based flow cytometry (reference value: 97.01%). Format: functional. As to conditions: PA-1, 24 h, read-out: Activity.
Series [29] in a line: Selectivity ratio of IC50 for human RWPE1 cells to IC50 for human LNCAP cells. Particulars: RWPE1 cells and LNCaP cells, read-out: Ratio IC50. Format: ADME, cell-based.

This is an account of results in ChEMBL document CHEMBL3808354, “Synthesis and biological evaluation of oxindole linked indolyl-pyrimidine derivatives as potential cytotoxic agents” (Bioorg Med Chem Lett, 2016).

Active and inactive are the calls of the source. The rule behind the calls is not given here.

As to `Cc1ccc(-c2ccnc(Nc3ccc4c(c3)c(/C=C3/C(=O)Nc5ccccc53)cn4C)n2)cc1`, the IC50 in [1], in [2], in [3] and in [4] was more than 100 µM throughout.

With `Cn1cc(/C=C2/C(=O)Nc3ccccc32)c2cc(Nc3nccc(-c4ccccc4)n3)ccc21`, the IC50 is 13.4 µM in series [1]; 42.9 µM in series [2]; 17.3 µM in series [3]; 14.1 µM in [4]; 95.6 µM in series [5].

As for `Cn1cc(/C=C2/C(=O)Nc3ccccc32)c2cc(Nc3nccc(-c4ccc(C(F)(F)F)cc4)n3)ccc21`, the IC50 was more than 100 µM in [1], 65.2 µM in series [2], 63.9 µM in [3] and 26 µM in series [4].

As for `Cn1cc(/C=C2/C(=O)Nc3ccccc32)c2cc(Nc3nccc(-c4ccc(O)cc4)n3)ccc21`, the IC50 in series [1] is 10.8 µM; in [2], 39.6 µM; in [3], 9.27 µM; in series [4] it was 13.2 µM; in [5], 58.4 µM.

Take `Cn1cc(/C=C2/C(=O)Nc3ccccc32)c2cc(Nc3nccc(-c4ccc(Cl)cc4)n3)ccc21`: the IC50 in series [1] was 6.59 µM; in series [2] it was 23.5 µM; in [3] it was 2.43 µM; in series [4], 5.82 µM; in series [5], 41.1 µM. For the same compound, the Activity in series [6] was 67.8%; in [7] it was 25.18%; in series [10], 3.03%; in series [12], 20.01%; in [13] it was 10.8%; in series [15], “Dose-dependent effect”. In addition, the Activity in [17] is 13.6%; in [19] it was 17.6%; in [21], 0.4%; in series [22] it was 57.1%; in [24], “Dose-dependent effect”; in [25], 7.42%. Also, the values for the Activity in [26] and in series [27] were 31.1% and 16.68%, respectively. Further, the result in series [8], in [11], in series [14], in series [16], in series [18] and in series [20] was Active. In addition, the result in series [23] was Active. In addition, the viability at 1 µM in series [9] is 75.5%. The viability at 2.5 µM in [28] stood at 51.8%.

Turning to `Cn1cc(/C=C2/C(=O)Nc3ccccc32)c2cc(Nc3nccc(-c4cccnc4)n3)ccc21`, the IC50 in series [1] was 14.2 µM; in series [2] it was 46.6 µM; in [3], 18.1 µM; in [4], 14.8 µM; in [5], 69.8 µM.

On to `CCN(CC)CCNC(=O)c1c(C)[nH]c(/C=C2\C(=O)Nc3ccc(F)cc32)c1C` [SUNITINIB], for which the half-inhibitory concentration (IC50) in [1] was 12.6 µM; in [2] it was 23.8 µM; in series [3], 7.97 µM; in series [4], 59.8 µM; in series [5], 23 µM.

For the compound `Cn1cc(/C=C2/C(=O)Nc3ccccc32)c2cc(Nc3nccc(-c4ccc(Cl)cc4Cl)n3)ccc21`, the IC50 in [1] is more than 100 µM; in series [2], more than 100 µM; in series [3], more than 100 µM; in series [4] it was 36.8 µM.

Turning to `Cn1cc(/C=C2/C(=O)Nc3ccccc32)c2cc(Nc3nccc(-c4ccc(F)cc4)n3)ccc21`, the IC50 in series [1] amounted to 16.3 µM; in series [2] it was 48.1 µM; in series [3], 31.8 µM; in [4] it was 16.4 µM; in series [5], 168 µM. The selectivity ratio in series [29] was found to be 10.3.

In the case of `Cn1cc(/C=C2/C(=O)Nc3ccccc32)c2cc(Nc3nccc(-c4cccs4)n3)ccc21`, the IC50 in [1] stood at 10.3 µM; in [2], 30.8 µM; in [3] it was 7.94 µM; in series [4], 7.18 µM; in series [5] it was 64.9 µM.

For the compound `O=c1[nH]cc(F)c(=O)[nH]1` [FLUOROURACIL], the IC50 was 47.2 µM in series [1], 32.3 µM in [2], 8.51 µM in series [3] and 15.5 µM in series [4].

For `COc1ccc(-c2ccnc(Nc3ccc4c(c3)c(/C=C3/C(=O)Nc5ccccc53)cn4C)n2)cc1`, the IC50 in series [1], in series [2], in series [3] and in [4] was more than 100 µM each time.
